From patent publication US20100305098A1, “METHODS OF USE” (priority 2007, published 2010)
pIC50: −log10 of the molar value.

Key:
Prostanoid CRTH2 = biological target: T1, Prostanoid CRTH2 (Homo sapiens, UniProt Q9Y5Y4); test: Competitive radioligand binding (MDS Pharma)
T1 construct: purchased MDS Pharma (outsourced assay)

Prostanoid DP = biological target: T2, Prostanoid DP (Homo sapiens, UniProt Q13258); test: Competitive radioligand binding (MDS Pharma)
T2 construct: purchased MDS Pharma (outsourced assay)

Prostanoid EP2 = biological target: T3, Prostanoid EP2 (Homo sapiens, UniProt P43116); test: Competitive radioligand binding (MDS Pharma)
T3 construct: purchased MDS Pharma (outsourced assay)

EP4 = biological target: T4, EP4 (Homo sapiens, UniProt P35408); test: PGE2 induced CRE-PLAP reporter assay in SE302 cells; type: cell-based; details: read-out: IC50 against PGE2 induced CRE-PLAP reporter activity
T4 construct: SE302 cells that express endogenous EP4; endogenous in cells; host or cells: SE302 cells
Protocol: CRE-PLAP reporter assay. SE302 cells that express endogenous EP4 were stimulated with PGE2 in the presence or absence of ER-819762 for overnight, and PLAP activity was measured.

5-HT2A = biological target: T5, 5-HT2A (Homo sapiens, UniProt P28223); test: FLIPR functional screen; type: cell-based; details: antagonist mode
T5 construct: purchased Millipore (outsourced screen)

5-HT2C = biological target: T6, 5-HT2C (Homo sapiens, UniProt P28335); test: FLIPR functional screen; type: cell-based; details: antagonist mode
T6 construct: purchased Millipore (outsourced screen)

ADRA2A = biological target: T7, ADRA2A (Homo sapiens, UniProt P08913); test: FLIPR functional screen; type: cell-based; details: antagonist mode
T7 construct: purchased Millipore (outsourced screen)

ADRB1 = biological target: T8, ADRB1 (Homo sapiens, UniProt P08588); test: FLIPR functional screen; type: cell-based; details: antagonist mode
T8 construct: purchased Millipore (outsourced screen)

ADRB2 = biological target: T9, ADRB2 (Homo sapiens, UniProt P07550); test: FLIPR functional screen; type: cell-based; details: antagonist mode
T9 construct: purchased Millipore (outsourced screen)

CAS = biological target: T10, CAS (Homo sapiens, UniProt P41180); test: FLIPR functional screen; type: cell-based; details: antagonist mode
T10 construct: Millipore

CB1 = biological target: T11, CB1 (Homo sapiens, UniProt P21554); test: FLIPR functional screen; type: cell-based; details: antagonist mode
T11 construct: Millipore

CCK1 = biological target: T12, CCK1 (Homo sapiens, UniProt P32238); test: FLIPR functional screen; type: cell-based; details: antagonist mode
T12 construct: Millipore

CCR6 = biological target: T13, CCR6 (Homo sapiens, UniProt P51684); test: FLIPR functional screen; type: cell-based; details: antagonist mode
T13 construct: Millipore

CGRP1 = biological target: T14, CGRP1 (Homo sapiens, UniProt O60894+Q16602); test: FLIPR functional screen; type: cell-based; details: antagonist mode
T14 construct: Millipore

CX3CR1 = biological target: T15, CX3CR1 (Homo sapiens, UniProt P49238); test: FLIPR functional screen; type: cell-based; details: antagonist mode
T15 construct: Millipore

CXCR3 = biological target: T16, CXCR3 (Homo sapiens, UniProt P49682); test: FLIPR functional screen; type: cell-based; details: antagonist mode
T16 construct: Millipore

D2 = biological target: T17, D2 (Homo sapiens, UniProt P14416); test: FLIPR functional screen; type: cell-based; details: antagonist mode
T17 construct: Millipore

EP1 = biological target: T18, EP1 (Homo sapiens, UniProt P34995); test: FLIPR functional screen; type: cell-based; details: antagonist mode
T18 construct: Millipore

FP = biological target: T19, FP (Homo sapiens, UniProt P43088); test: FLIPR functional screen; type: cell-based; details: antagonist mode
T19 construct: Millipore

FPR2 = biological target: T20, FPR2 (Homo sapiens, UniProt P25090); test: FLIPR functional screen; type: cell-based; details: antagonist mode
T20 construct: Millipore

GLP1 = biological target: T21, GLP1 (Homo sapiens, UniProt P43220); test: FLIPR functional screen; type: cell-based; details: antagonist mode
T21 construct: Millipore

GPR43 = biological target: T22, GPR43 (Homo sapiens, UniProt O15552); test: FLIPR functional screen; type: cell-based; details: antagonist mode
T22 construct: Millipore

GPR54 = biological target: T23, GPR54 (Homo sapiens, UniProt Q969F8); test: FLIPR functional screen; type: cell-based; details: antagonist mode
T23 construct: Millipore

H3 = biological target: T24, H3 (Homo sapiens, UniProt Q9Y5N1); test: FLIPR functional screen; type: cell-based; details: antagonist mode
T24 construct: Millipore

M1 = biological target: T25, M1 (Homo sapiens, UniProt P11229); test: FLIPR functional screen; type: cell-based; details: antagonist mode
T25 construct: Millipore

NK2 = biological target: T26, NK2 (Homo sapiens, UniProt P21452); test: FLIPR functional screen; type: cell-based; details: antagonist mode
T26 construct: Millipore

NMU1 = biological target: T27, NMU1 (Homo sapiens, UniProt Q9HB89); test: FLIPR functional screen; type: cell-based; details: antagonist mode
T27 construct: Millipore

NOP = biological target: T28, NOP (Homo sapiens, UniProt P41146); test: FLIPR functional screen; type: cell-based; details: antagonist mode
T28 construct: Millipore

OT = biological target: T29, OT (Homo sapiens, UniProt P30559); test: FLIPR functional screen; type: cell-based; details: antagonist mode
T29 construct: Millipore

PRP = biological target: T30, PRP (Homo sapiens, UniProt P49683); test: FLIPR functional screen; type: cell-based; details: antagonist mode
T30 construct: Millipore

S1P2 = biological target: T31, S1P2 (Homo sapiens, UniProt O95136); test: FLIPR functional screen; type: cell-based; details: antagonist mode
T31 construct: Millipore

S1P3 = biological target: T32, S1P3 (Homo sapiens, UniProt Q99500); test: FLIPR functional screen; type: cell-based; details: antagonist mode
T32 construct: Millipore

V2 = biological target: T33, V2 (Homo sapiens, UniProt P30518); test: FLIPR functional screen; type: cell-based; details: antagonist mode
T33 construct: Millipore

Y2 = biological target: T34, Y2 (Homo sapiens, UniProt P49146); test: FLIPR functional screen; type: cell-based; details: antagonist mode
T34 construct: Millipore

T2 sequence (Q13258 whole entry): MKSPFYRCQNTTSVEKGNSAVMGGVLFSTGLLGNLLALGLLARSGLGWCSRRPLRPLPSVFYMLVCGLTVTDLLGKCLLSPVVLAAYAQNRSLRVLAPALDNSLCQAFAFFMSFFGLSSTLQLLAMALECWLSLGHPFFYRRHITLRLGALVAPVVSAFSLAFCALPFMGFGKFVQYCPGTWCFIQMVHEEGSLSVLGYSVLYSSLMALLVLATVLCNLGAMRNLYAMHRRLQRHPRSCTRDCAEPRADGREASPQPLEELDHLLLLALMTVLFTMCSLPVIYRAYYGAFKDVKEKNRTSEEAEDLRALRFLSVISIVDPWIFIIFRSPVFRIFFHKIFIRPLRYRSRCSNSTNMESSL
T3 sequence (P43116 whole entry): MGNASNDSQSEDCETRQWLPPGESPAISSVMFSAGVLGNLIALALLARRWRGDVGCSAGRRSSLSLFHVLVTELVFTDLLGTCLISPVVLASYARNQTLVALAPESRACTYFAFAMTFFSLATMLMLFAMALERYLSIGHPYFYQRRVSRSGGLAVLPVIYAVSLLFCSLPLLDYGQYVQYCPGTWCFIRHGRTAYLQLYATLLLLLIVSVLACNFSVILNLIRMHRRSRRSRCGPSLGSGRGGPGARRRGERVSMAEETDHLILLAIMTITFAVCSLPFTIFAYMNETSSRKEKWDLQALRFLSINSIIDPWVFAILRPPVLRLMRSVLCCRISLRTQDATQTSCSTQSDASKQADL
T1 sequence (Q9Y5Y4 whole entry): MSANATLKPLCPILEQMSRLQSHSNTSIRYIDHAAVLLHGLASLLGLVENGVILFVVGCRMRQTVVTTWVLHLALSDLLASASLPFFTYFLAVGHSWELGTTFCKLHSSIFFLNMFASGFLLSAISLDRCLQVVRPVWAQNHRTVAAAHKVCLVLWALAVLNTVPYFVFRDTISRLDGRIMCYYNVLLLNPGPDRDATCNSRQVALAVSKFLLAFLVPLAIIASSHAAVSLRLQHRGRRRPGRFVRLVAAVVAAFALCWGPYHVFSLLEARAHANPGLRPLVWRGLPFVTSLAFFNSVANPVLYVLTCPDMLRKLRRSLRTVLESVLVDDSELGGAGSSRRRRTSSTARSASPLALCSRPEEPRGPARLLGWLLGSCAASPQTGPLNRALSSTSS
T26 sequence (P21452 whole entry): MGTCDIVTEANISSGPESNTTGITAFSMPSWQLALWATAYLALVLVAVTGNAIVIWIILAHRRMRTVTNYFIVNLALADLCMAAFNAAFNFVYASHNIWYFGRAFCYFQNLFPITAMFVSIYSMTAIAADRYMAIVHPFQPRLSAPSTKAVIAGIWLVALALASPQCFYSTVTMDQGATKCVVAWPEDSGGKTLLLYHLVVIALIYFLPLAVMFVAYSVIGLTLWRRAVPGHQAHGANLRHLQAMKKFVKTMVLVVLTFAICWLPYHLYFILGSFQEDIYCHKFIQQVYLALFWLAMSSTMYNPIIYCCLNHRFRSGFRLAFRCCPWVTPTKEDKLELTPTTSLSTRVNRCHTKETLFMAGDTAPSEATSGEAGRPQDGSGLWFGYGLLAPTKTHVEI
T6 sequence (P28335 33-458): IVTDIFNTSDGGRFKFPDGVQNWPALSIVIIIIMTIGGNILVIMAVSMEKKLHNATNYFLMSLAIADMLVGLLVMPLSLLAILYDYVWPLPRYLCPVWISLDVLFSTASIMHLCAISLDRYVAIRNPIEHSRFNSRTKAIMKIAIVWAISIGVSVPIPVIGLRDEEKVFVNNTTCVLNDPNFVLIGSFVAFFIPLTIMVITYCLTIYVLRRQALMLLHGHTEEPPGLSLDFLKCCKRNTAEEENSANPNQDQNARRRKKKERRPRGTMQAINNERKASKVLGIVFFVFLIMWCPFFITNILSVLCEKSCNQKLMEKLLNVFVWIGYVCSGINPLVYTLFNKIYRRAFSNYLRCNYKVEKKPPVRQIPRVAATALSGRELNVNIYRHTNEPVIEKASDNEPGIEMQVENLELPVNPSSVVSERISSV
T31 sequence (O95136 whole entry, species assumed): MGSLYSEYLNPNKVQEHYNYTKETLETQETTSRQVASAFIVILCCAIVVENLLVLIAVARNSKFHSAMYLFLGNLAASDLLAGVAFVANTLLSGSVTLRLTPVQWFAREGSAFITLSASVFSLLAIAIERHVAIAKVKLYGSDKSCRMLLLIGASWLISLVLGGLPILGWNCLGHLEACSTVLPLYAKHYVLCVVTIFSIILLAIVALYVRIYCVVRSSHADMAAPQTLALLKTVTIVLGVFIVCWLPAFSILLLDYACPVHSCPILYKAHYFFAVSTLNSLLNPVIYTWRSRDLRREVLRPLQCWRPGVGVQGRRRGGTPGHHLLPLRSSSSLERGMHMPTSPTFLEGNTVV
T5 sequence (P28223 whole entry): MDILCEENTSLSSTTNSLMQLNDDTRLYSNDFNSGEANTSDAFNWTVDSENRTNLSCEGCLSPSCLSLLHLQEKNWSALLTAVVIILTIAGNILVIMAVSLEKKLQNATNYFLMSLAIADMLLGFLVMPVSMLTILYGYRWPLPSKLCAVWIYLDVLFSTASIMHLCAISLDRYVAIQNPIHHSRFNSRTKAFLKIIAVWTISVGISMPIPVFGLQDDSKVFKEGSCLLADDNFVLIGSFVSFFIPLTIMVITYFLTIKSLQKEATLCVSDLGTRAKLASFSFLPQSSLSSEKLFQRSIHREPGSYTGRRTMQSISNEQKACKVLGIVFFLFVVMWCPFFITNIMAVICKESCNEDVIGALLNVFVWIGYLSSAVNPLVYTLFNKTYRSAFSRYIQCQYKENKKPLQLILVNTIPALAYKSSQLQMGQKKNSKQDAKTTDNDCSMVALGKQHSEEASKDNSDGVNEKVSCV
T25 sequence (P11229 whole entry): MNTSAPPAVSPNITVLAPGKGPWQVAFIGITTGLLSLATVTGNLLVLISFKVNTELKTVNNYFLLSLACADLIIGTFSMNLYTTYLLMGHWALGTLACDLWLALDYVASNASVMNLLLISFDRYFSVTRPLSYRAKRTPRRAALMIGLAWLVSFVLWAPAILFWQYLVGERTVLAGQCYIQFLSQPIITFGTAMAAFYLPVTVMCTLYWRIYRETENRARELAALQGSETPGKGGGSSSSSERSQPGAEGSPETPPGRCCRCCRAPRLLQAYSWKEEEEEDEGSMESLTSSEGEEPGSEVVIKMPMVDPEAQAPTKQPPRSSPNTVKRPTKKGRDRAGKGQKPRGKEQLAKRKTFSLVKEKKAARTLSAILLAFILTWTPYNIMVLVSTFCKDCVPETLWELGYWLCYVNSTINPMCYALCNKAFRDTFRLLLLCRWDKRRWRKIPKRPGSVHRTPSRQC
T12 sequence (P32238 whole entry): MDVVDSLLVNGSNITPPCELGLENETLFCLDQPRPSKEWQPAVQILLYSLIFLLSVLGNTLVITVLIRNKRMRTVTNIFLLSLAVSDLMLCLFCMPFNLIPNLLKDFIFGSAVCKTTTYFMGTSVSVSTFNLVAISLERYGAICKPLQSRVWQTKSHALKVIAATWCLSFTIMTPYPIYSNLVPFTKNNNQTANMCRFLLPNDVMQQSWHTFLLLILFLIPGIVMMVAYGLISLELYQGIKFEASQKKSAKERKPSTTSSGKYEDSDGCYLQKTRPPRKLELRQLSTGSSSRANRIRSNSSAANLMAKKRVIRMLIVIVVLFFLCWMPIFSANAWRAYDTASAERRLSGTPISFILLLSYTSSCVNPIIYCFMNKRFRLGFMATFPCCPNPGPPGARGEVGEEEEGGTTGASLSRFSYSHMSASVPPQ
T20 sequence (P25090 whole entry, species assumed): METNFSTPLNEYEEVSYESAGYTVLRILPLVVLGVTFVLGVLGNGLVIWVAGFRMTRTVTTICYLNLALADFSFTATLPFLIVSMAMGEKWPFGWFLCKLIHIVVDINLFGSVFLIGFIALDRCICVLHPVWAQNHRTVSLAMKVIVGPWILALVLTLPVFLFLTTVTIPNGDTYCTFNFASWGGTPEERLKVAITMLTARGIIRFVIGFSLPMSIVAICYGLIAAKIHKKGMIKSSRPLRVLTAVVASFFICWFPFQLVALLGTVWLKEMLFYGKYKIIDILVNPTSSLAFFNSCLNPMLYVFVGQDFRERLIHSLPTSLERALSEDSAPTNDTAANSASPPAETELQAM
T16 sequence (P49682 whole entry, species assumed): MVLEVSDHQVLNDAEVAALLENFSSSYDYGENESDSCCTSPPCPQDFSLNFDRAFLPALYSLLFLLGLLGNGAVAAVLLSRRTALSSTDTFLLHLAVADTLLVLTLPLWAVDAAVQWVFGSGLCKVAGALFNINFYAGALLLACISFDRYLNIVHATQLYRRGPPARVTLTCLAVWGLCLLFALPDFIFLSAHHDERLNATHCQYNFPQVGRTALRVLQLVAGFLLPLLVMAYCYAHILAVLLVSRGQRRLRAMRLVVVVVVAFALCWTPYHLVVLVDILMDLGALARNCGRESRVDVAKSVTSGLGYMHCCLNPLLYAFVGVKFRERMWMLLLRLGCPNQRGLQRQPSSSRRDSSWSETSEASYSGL
T28 sequence (P41146 whole entry): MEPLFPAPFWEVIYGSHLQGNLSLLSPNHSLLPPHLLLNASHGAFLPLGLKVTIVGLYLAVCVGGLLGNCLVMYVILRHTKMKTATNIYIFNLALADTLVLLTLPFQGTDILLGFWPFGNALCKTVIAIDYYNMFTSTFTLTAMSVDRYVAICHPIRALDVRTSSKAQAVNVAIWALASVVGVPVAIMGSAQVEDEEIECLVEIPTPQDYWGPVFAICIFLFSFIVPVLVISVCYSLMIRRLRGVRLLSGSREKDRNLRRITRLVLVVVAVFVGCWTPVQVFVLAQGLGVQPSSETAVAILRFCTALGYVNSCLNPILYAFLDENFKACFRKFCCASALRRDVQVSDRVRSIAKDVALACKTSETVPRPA

Compound: CCN1C(=O)N2Cc3cc(OC)cc(OC)c3[C@@H](C)C=C2C12CCN(Cc1cccn1C)CC2 [ER-819924-01]
- % INHIBITION (Prostanoid CRTH2; CONC. 0.1 μm): 8%
- % INHIBITION (Prostanoid CRTH2; CONC. 1 μm): −5%
- % INHIBITION (Prostanoid DP; CONC. 0.1 μm): 0%
- % INHIBITION (Prostanoid DP; CONC. 1 μm): 13%
- % INHIBITION (Prostanoid EP2; CONC. 0.1 μm): −3%
- % INHIBITION (Prostanoid EP2; CONC. 1 μm): 1%
- pIC50 (EP4): 7.55
- inhibition at 1 µM (5-HT2A): 8.8%
- inhibition at 1 µM (5-HT2C): -12.5%
- inhibition at 1 µM (ADRA2A): 3.3%
- inhibition at 1 µM (ADRB1): -15.3%
- inhibition at 1 µM (ADRB2): -2.3%
- inhibition at 1 µM (CAS): 7.2%
- inhibition at 1 µM (CB1): 10.5%
- inhibition at 1 µM (CCK1): 13%
- inhibition at 1 µM (CCR6): -4.9%
- inhibition at 1 µM (CGRP1): -5.6%
- inhibition at 1 µM (CX3CR1): 1.7%
- inhibition at 1 µM (CXCR3): 3.2%
- inhibition at 1 µM (D2): -4.6%
- inhibition at 1 µM (EP1): -2%
- inhibition at 1 µM (FP): 14%
- inhibition at 1 µM (FPR2): 6.9%
- inhibition at 1 µM (GLP1): 10.6%
- inhibition at 1 µM (GPR43): 10.6%
- inhibition at 1 µM (GPR54): -0.4%
- inhibition at 1 µM (H3): -31.5%
- inhibition at 1 µM (M1): 3.6%
- inhibition at 1 µM (NK2): 2.1%
- inhibition at 1 µM (NMU1): -14%
- inhibition at 1 µM (NOP): 1%
- inhibition at 1 µM (OT): 4.6%
- inhibition at 1 µM (PRP): 5.4%
- inhibition at 1 µM (S1P2): -0.5%
- inhibition at 1 µM (S1P3): 8.9%
- inhibition at 1 µM (V2): -24.8%
- inhibition at 1 µM (Y2): -1%
